Laboratory results as given in PMC11331178 (Journal of Advanced Research, 2023).

Target: T1, TFEB (Homo sapiens, UniProt P19484)
T1 sequence (P19484 1-476 limits assumed): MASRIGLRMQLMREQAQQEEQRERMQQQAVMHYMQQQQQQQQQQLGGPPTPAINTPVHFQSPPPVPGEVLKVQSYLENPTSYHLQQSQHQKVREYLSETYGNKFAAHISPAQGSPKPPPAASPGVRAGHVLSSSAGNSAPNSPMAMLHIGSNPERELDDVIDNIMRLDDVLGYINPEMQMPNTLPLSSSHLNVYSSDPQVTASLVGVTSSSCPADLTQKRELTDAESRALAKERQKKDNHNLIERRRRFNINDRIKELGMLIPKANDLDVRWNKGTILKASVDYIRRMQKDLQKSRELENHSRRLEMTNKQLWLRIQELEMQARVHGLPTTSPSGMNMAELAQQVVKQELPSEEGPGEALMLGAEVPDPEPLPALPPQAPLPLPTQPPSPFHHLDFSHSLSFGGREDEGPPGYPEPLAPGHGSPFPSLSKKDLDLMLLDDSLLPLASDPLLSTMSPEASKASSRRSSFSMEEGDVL
Experiment: SPR, Biacore S200, CM5 chip
Assay type: binding

Kd: 83 µM
Compound: C=C[C@]1(C)CC[C@@H](C(=C)C)C[C@H]1C(=C)C [β-ELE]
